Source: patent US6833456B2, “Indolyl-urea derivatives of thienopyridines useful as antiangiogenic agents, and methods for their use” (Agouron Pharmaceuticals, Inc., priority 2002, dated 2004)

Key:
[1] = target: T1, unphosphorylated VEGF-R2Δ50 (FLVK) (Homo sapiens, UniProt P35968, DEL940-989/E990V); experiment: VEGF-R2 coupled spectrophotometric assay, unphosphorylated construct (FLVK); type: biochemical; conditions: for inhibition at 0.05 µM: percent inhibition at 50 nM
T1 construct: VEGF-R2Δ50 contains residues 806-939 and 990-1171; made in house; host or cells: baculovirus/insect cell system
Method in brief: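 Human VEGF-R2Δ50 cytosolic kinase (residues 806-939/990-1171, E990V), baculovirus-expressed, unphosphorylated form. PK/LDH-coupled NADH oxidation at 340 nm with 20 mM poly(E4Y1), 3 mM ATP, 60 mM MgCl2, 2 mM MnCl2, 200 mM HEPES pH 7.5, 5-40 nM enzyme; Ki fitted by Morrison equation.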

Mouse PK assay = type: in vivo, B6 female mice; conditions: for AUC / Cmax: female, B6, mouse, plasma; for AUC / Cmax / Mouse Cmin, po: po; for Cmax: read-out: Mouse Cmax, po ng-h/mL
Method in brief: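 Plasma levels were measured by HPLC with UV detection after acetonitrile precipitation, using extracted standards, in blood taken up to 4 h (0.5, 1, 2, 4 h) post-dose. Dosing: 50 mg/kg orally or intraperitoneally to two groups of four female B6 mice, vehicle PEG 400:acidified H2O 30:70 suspension.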

T1 sequence (P35968 with tags, fused parts or gaps DEL940-989/E990V limits assumed): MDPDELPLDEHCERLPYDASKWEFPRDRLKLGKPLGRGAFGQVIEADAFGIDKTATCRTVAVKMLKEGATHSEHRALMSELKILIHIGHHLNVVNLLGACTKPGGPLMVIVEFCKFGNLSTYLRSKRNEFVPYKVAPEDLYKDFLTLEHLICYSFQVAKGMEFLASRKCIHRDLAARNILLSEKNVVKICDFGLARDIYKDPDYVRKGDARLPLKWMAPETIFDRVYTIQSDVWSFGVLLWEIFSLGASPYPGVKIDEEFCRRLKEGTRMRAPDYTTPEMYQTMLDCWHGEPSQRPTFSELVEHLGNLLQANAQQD

| SMILES | Ki [1] [nM] | inhibition at 0.05 µM [1] [%] | AUC (Mouse PK assay; 50 mg/kg) [ng·h/mL] | Cmax (Mouse PK assay; 50 mg/kg, p.o., 50 mg/kg) [ng/mL] | Mouse Cmin, po (Mouse PK assay) [ng/mL] | Mouse Cmax, po ng/mL (Mouse PK assay; p.o., 50 mg/kg) [ng/mL] |
| --- | --- | --- | --- | --- | --- | --- |
| CNC(=O)n1c(C)cc2cc(Nc3ccnc4cc(C(=O)N5CCC[C@@H]5CO)sc34)ccc21 [Example 1a, 5-[2-(2R-Hydroxymethyl-pyrrolidine-1-carbonyl)-thieno[3,2-b]pyridin-7-ylamino]-2-methyl-indole-1-carboxylic acid methylamide] | 0.69 | 90 | 1020 | 526 | 3 |  |
| CNC(=O)n1c(C)cc2cc(Nc3ccnc4cc(C(=O)N5CC[C@@H](OC)C5)sc34)ccc21 [Example 1l, 5-[2-(3R-Methoxy-pyrrolidine-1-carbonyl)-thieno[3,2-b]pyridin-7-ylamino]-2-methyl-indole-1-carboxylic acid methylamide] |  | 94 | 719 | 504 | 5 |  |
| CNC(=O)n1c(C)cc2cc(Oc3ccnc4cc(C(=O)N5CC[C@@H](OC)C5)sc34)ccc21 [Example 4j, 5-[2-(3R-Methoxy-pyrrolidine-1-carbonyl)-thieno[3,2-b]pyridin-7-yloxy]-2-methyl-indole-1-carboxylic acid methylamide] | 0.121 | 96 | 5080 | 3430 | 32 |  |
| CCCNC(=O)n1c(C)cc2cc(Oc3ccnc4cc(C(=O)N5CC[C@H](O)C5)sc34)ccc21 [Example 9i, 5-[2-(3S-Hydroxy-pyrrolidine-1-carbonyl)-thieno[3,2-b]pyridin-7-yloxy]-2-methyl-indole-1-carboxylic acid propylamide] | 0.245 | 98 | 9480 | 2320 | 461 |  |
| C#CCNC(=O)n1c(C)cc2cc(Oc3ccnc4cc(C(=O)N5CCC[C@@H]5CO)sc34)ccc21 [Example 8q, 5-[2-(2R-Hydroxymethyl-pyrrolidine-1-carbonyl)-thieno[3,2-b]pyridin-7-yloxy]-2-methyl-indole-1-carboxylic acid prop-2-ynylamide] | 0.286 | 97 | 31300 | 10400 | 1297 |  |
| CNC(=O)n1c(C)cc2cc(Nc3ccnc4cc(C(=O)N5CC[C@@H](O)C5)sc34)ccc21 [Example 1n, 5-[2-(3R-Hydroxy-pyrrolidine-1-carbonyl)-thieno[3,2-b]pyridin-7-ylamino]-2-methyl-indole-1-carboxylic acid methylamide] |  | 94 | 12 | 8 | 0 |  |
| Cc1cc2cc(Oc3ccnc4cc(C(=O)N5CC[C@@H](O)C5)sc34)ccc2n1C(=O)NC1CC1 [Example 4p, 5-[2-(3R-Hydroxy-pyrrolidine-1-carbonyl)-thieno[3,2-b]pyridin-7-yloxy]-2-methyl-indole-1-carboxylic acid cyclopropylamide] | 0.25 | 98 | 4630 | 2710 | 68 |  |
| CCOC(=O)c1csc(-c2cc3nccc(Nc4ccc5c(c4)cc(C)n5C(=O)NC)c3s2)n1 [Example 3c, 2-[7-(2-Methyl-1-methylcarbamoyl-1H-indol-5-ylamino)-thieno[3,2-b]pyridin-2-yl]-thiazole-4-carboxylic acid ethyl ester] | 0.79 | 81 |  |  | 0 | 0 |
| C#CCNC(=O)n1c(C)cc2c(F)c(Oc3ccnc4cc(C(=O)N5CCC[C@H]5CO)sc34)ccc21 [Example 5e, 4-Fluoro-5-[2-(2S-hydroxymethyl-pyrrolidine-1-carbonyl)-thieno[3,2-b]pyridin-7-yloxy]-2-methyl-indole-1-carboxylic acid prop-2-ynylamide] | 0.431 | 100 | 1960 | 1100 | 19 |  |
| CNC(=O)n1c(C)cc2cc(Oc3ccnc4cc(C(=O)N5CC[C@@H](O)C5)sc34)ccc21 [Example 4n, 5-[2-(3R-Hydroxy-pyrrolidine-1-carbonyl)-thieno[3,2-b]pyridin-7-yloxy]-2-methyl-indole-1-carboxylic acid methylamide] | 0.62 | 99 | 1850 | 1110 | 45 |  |
| CNC(=O)n1c(C)cc2cc(Nc3ccnc4cc(-c5nc(C(C)(C)O)cs5)sc34)ccc21 [Example 3a, 5-{2-[4-(1-Hydroxy-1-methyl-ethyl)-thiazol-2-yl]-thieno[3,2-b]pyridin-7-ylamino}-2-methyl-indole-1-carboxylic acid methylamide] | 0.45 | 91 | 10300 | 3950 | 408 |  |
| Cc1cc2cc(Nc3ccnc4cc(C(=O)N5CC[C@H](O)C5)sc34)ccc2n1C(=O)NC1CC1 [Example 1k, 5-[2-(3S-Hydroxy-pyrrolidine-1-carbonyl)-thieno[3,2-b]pyridin-7-ylamino]-2-methyl-indole-1-carboxylic acid cyclopropylamide] | 0.63 | 97 | 18 | 8 | 0 |  |
| Cc1cc2cc(Oc3ccnc4cc(C(=O)N5CC[C@H](O)C5)sc34)ccc2n1C(=O)NCCCO [Example 9l, 5-[2-(3S-Hydroxy-pyrrolidine-1-carbonyl)-thieno[3,2-b]pyridin-7-yloxy]-2-methyl-indole-1-carboxylic acid (3-hydroxy-propyl)-amide] | 0.327 | 97 | 138 | 56 | 4 |  |
| CO[C@@H]1C[C@@H](CO)N(C(=O)c2cc3cccc(Nc4ccc5c(c4)cc(C)n5C(=O)NC4CC4)c3s2)C1 [Example 3g, 5-[2-((2S,4R)-2-Hydroxymethyl-4-methoxy-pyrrolidine-1-carbonyl)-benzo[b]thiophen-7-ylamino]-2-methyl-indole-1-carboxylic acid cyclopropylamide] | 1.12 | 95 | 46 | 19 | 2 |  |
| CNC(=O)n1c(C)cc2cc(Nc3ccnc4cc(C(=O)N5CCC[C@@H]5COC)sc34)ccc21 [Example 1b, 5-[2-(2R-Methoxymethyl-pyrrolidine-1-carbonyl)-thieno[3,2-b]pyridin-7-ylamino]-2-methyl-indole-1-carboxylic acid methylamide] | 0.96 | 88 | 78 | 24 | 5 |  |
| CNC(=O)n1c(C)cc2cc(Oc3ccnc4cc(C(=O)N5CCC[C@@H]5COC)sc34)ccc21 [Example 4e, 5-[2-(2R-Methoxymethyl-pyrrolidine-1-carbonyl)-thieno[3,2-b]pyridin-7-yloxy]-2-methyl-indole-1-carboxylic acid methylamide] | 0.14 | 96 | 5540 | 3790 | 23 |  |
